“Also recorded” adds a separate entry of the source. Read-outs that look alike come from different tables or passages of the source. No end group written: not given here.
B1: fremanezumab (antibody, chains of the INN, looked up, V domains shown)
VH: EVQLVESGGGLVQPGGSLRLSCAASGFTFSNYWISWVRQAPGKGLEWVAEIRSESDASATHYAEAVKGRFTISRDNAKNSLYLQMNSLRAEDTAVYYCLAYFDYGLAIQNYWGQGTLVTVSS
VL: EIVLTQSPATLSLSPGERATLSCKASKRVTTYVSWYQQKPGQAPRLLIYGASNRYLGIPARFSGSGSGTDFTLTISSLEPEDFAVYYCSQSYNYPYTFGQGTKLEIK

Columns and labels:
[1] = system: cecal tissue explants; details: mouse, in vivo
[2] = system: mice; type: in vivo, mouse
[3] = system: C. difficile M7404 (A-/B+); experiment: CDI mouse model, hypervirulent strain M7404 (TcdA-/TcdB2); details: for fatality: CDI with M7404 (A-/B+), mice; for histopathological scores of colitis: surviving mice, CDI with M7404
[4] = system: C. difficile 630 Δerm; experiment: C. difficile growth in vitro (OD600); details: 20 μM, 24 h
[5] = system: C. difficile 630 Δerm; experiment: Antibiotic-treatment-induced CDI mouse model, C. difficile 630 Δerm; details: for histopathological scores: CDI mouse model, 630 Δerm, FIG. 4D; for histopathological scores / pathogen burden (C. difficile CFUs in faeces): WT mice; for pathogen burden (C. difficile CFUs in faeces): day 2 after infection
[6] = system: mouse footpads; details: for oedema induced by TcdB2: footpad injection of TcdB2, antagonist pre-treatment
Description: The footpad toxin injection assay was performed as previously described. Briefly, mice were restrained in an incontinence pad and the footpad was held and subsequently injected using a 29.5G syringe into the plantar surface. […] Paw diameter changes were assessed by calculating a ratio relative to the un-injected foot. For each test toxin, 500 ng were administered in a volume of 20 μl of normal saline. Pharmacological assays were performed in female CDI mice, with pre-treatment with drugs 30 min to 1 h prior to toxin injection. For experiments involving transgenic mice, experiments were performed in male and female mice (age matched, 8-15 weeks).

[7] = system: human brain pericytes; experiment: IL-8 secretion from cultured pericytes (ELISA); type: cell-based
Description: Primary human cultured brain vascular pericytes (ScienCell, #1200) were routinely cultured in special medium with supplement, FBS and penicillin streptomycin provided by the cell's vendor (ScienCell, #1201). Cells were subcultured when confluent and used up to passage 10. For secretion assays these were performed on early passage cells (passages 3-8). Cytokine secretion in cell culture medium was determined using ELISA based assays against IL-8 (Biolegend, 431504). The effect of CGRP on cultured pericytes was determined by incubating pericytes for 1 h with human CGRPB (Cayman, 24725).

[8] = cecum injection of TcdB (6 μg), mice pretreated with antagonist 30 min to 1 h before, FIG. 4C

Row | Molecule | CGRP secretion [1] | fatality [3] | histopathological scores of colitis [3] | C. difficile growth rate / fitness (OD600) [4] | histopathological scores [5] | pathogen burden (C. difficile CFUs in faeces) [5] | oedema induced by TcdB2 [6] | histopathological scores [2, 8] | histopathological scores ([2]; mouse, in vivo) | also measured
1 | C=C(C)[C@]12C[C@@H](C)[C@@]34O[C@](Cc5ccccc5)(O[C@@H]1[C@@H]3C=C(COC(=O)Cc1ccc(O)c(OC)c1)C[C@]1(O)C(=O)C(C)=C[C@@H]41)O2 [RTX, resiniferatoxin] | reduced |  |  |  |  |  |  |  |  | SP levels [1]: reduced SP levels; histopathology upon TcdB administration ([2]; mouse, in vivo): less severe histopathology
2 | C[C@@H](O[C@H]1OCCN(Cc2n[nH]c(=O)[nH]2)[C@H]1c1ccc(F)cc1)c1cc(C(F)(F)F)cc(C(F)(F)F)c1 [aprepitant] |  | markedly reduced | markedly reduced | not affected; also recorded: Neither drug influenced C. difficile growth rate | reduced histopathological scores | reduced pathogen burden | prevented | reduced histopathological scores |  | effect on C. difficile colonization and histopathological scores ([5]; Tac1 KO mice): nor had an effect; oedema induced by TcdA ([6]; footpad injection of TcdA, antagonist pre-treatment): prevented; also recorded: blocked; oedema induced by TcdB2 ([6]; listed as Aprepitant): can prevent oedema induced by TcdB2; oedema induced by TcdB ([6]; footpad injection of TcdB, antagonist pre-treatment): prevented oedema induced by TcdB; oedema induced by GTD-ciDT ([6]; footpad, Tac1-Cre mice infected with AAV-DTR): blocked
3 | NCCCC[C@H](NC(=O)[C@@H](Cc1cc(Br)c(O)c(Br)c1)NC(=O)N1CCC(N2Cc3ccccc3NC2=O)CC1)C(=O)N1CCN(c2ccncc2)CC1 [olcegepant] |  | markedly reduced | markedly reduced | not affected; also recorded: Neither drug influenced C. difficile growth rate | reduced histopathological scores | reduced pathogen burden | can prevent oedema induced by TcdB2; also recorded: prevented | reduced histopathological scores |  | effect on C. difficile colonization and histopathological scores ([5]; Calcb KO mice): nor had an effect
4 | CGRP: human CGRPβ (Cayman, 24725) added to cultured pericytes (ACNTATCVTHRLAGLLSRSGGMVKSNFVPTNVGSKAF; ends and bridges not checked; cysteine pairing not given here; UniProt P10092 82-118, looked up) |  |  |  |  |  |  |  |  |  | IL-8 secretion [7]: induced secretion of IL-8
5 | substance P (RPKPQQFFGLM; not fully specified (C-terminus); ends and bridges not checked; UniProt P20366 58-68, looked up) [neuropeptide composed of a chain of 11 amino acids, tachykinin family] | restored |  |  |  |  |  |  |  | restored histopathological scores | susceptibility to TcdB (histopathology) ([2]; mouse, in vivo): restored the susceptibility
6 | B1 |  |  |  |  | reduced histopathological scores |  |  |  | reduced histopathological scores | 
